Data: patent US20230167088A1, “1-PYRAZINYLPYRAZOLYL-3-OXYALKYL ACIDS AND THEIR DERIVATIVES, AND THEIR USE FOR CONTROL OF UNDESIRED PLANT GROWTH” (BAYER AKTIENGESELLSCHAFT, priority 2020, published 2023)

Experiments:
POAAN [1] = assay: Herbicidal pre-emergence action 2b (doubly sown, 1280 g/ha); type: in vivo, Poa annua; conditions: doubly sown pots, dosage 1280 g/ha, visual scoring after about 3 weeks
Source text: (§1) [table] b) Seeds of mono- and dicotyledonous weed plants are placed in plastic pots in sandy loam soil (doubly sown with one species each of mono- or dicotyledonous weed plants per pot) and covered with soil. The compounds of the invention, formulated in the form of wettable powders (WP) or as emulsion concentrates (EC), are then applied onto the surface of the covering soil as aqueous suspension or emulsion with addition of 0.5% additive at a water application rate equivalent to 600 litres per hectare. After the treatment, the pots are placed in a greenhouse and kept under good growth conditions for the trial plants. After about 3 weeks, the effect of the preparations is scored visually in comparison with untreated controls as percentages. For example, 100% activity=the plants have died, 0% activity=like control plants. Tables B16 to B21 below show the effects of selected compounds of the general formula (I) according to Tables 1 and 2 on various harmful plants and at an application rate corresponding to 1280 g/ha, which were obtained by the experimental procedure mentioned above.

STEME = assay: as above; type: in vivo, Stellaria media; conditions: doubly sown pots, dosage 1280 g/ha, visual scoring after about 3 weeks
Source text: as §1

ECHCG [2] = assay: as above; type: in vivo, Echinochloa crus-galli; conditions: doubly sown pots, dosage 1280 g/ha, visual scoring after about 3 weeks
Source text: as §1

AMARE [3] = assay: as above; type: in vivo, Amaranthus retroflexus; conditions: doubly sown pots, dosage 1280 g/ha, visual scoring after about 3 weeks
Source text: as §1

POAAN [4] = assay: Herbicidal post-emergence action 1b (twin sowing, 1280 g/ha); type: in vivo, Poa annua; conditions: dosage 1280 g/ha, visual rating about 3 weeks after treatment
Experimental: (§2) [table] b) Seeds of mono- and dicotyledonous weed plants are placed in plastic pots in sandy loam soil (twin sowing with one species each of mono- or dicotyledonous weed plants per pot), covered with soil and cultivated in a greenhouse under controlled growth conditions. 2 to 3 weeks after sowing, the test plants are treated at the one-leaf stage. The compounds of the invention, formulated in the form of wettable powders (WP) or as emulsion concentrates (EC), are applied to the green parts of the plants as aqueous suspension or emulsion with addition of 0.5% additive at a water application rate equivalent to 600 litres per hectare. After the test plants have been kept in the greenhouse under optimum growth conditions for about 3 weeks, the activity of the preparations is rated visually in comparison to untreated controls. For example, 100% activity=the plants have died, 0% activity=like control plants. Tables A16 to A21 below show the effects of selected compounds of the general formula (I) according to Tables 1 and 2 on various harmful plants and at an application rate corresponding to 1280 g/ha, which were obtained by the experimental procedure mentioned above.

ECHCG [5] = assay: as above; type: in vivo, Echinochloa crus-galli; conditions: dosage 1280 g/ha, visual rating about 3 weeks after treatment
Experimental: as §2

DIGSA [6] = assay: Herbicidal pre-emergence action 2b (doubly sown, 1280 g/ha); type: in vivo, Digitaria sanguinalis; conditions: doubly sown pots, dosage 1280 g/ha, visual scoring after about 3 weeks
Source text: as §1

MATIN [7] = assay: Herbicidal post-emergence action 1b (twin sowing, 1280 g/ha); type: in vivo, Matricaria inodora; conditions: dosage 1280 g/ha, visual rating about 3 weeks after treatment
Experimental: as §2

DIGSA [8] = assay: as above; type: in vivo, Digitaria sanguinalis; conditions: dosage 1280 g/ha, visual rating about 3 weeks after treatment
Experimental: as §2

MATIN [9] = assay: Herbicidal pre-emergence action 2b (doubly sown, 1280 g/ha); type: in vivo, Matricaria inodora; conditions: doubly sown pots, dosage 1280 g/ha, visual scoring after about 3 weeks
Source text: as §1

SETVI = assay: Herbicidal post-emergence action 1a (greenhouse pots, visual rating); type: in vivo, Setaria viridis; conditions: Dosage 320 g/ha; rated visually about 3 weeks after treatment; 100% = plants have died, 0% = like control plants
Experimental: (§3) [table] a) Seeds of monocotyledonous and dicotyledonous weeds and crop plants are placed in sandy loam in plastic or organic plant pots, covered with soil and cultivated in a greenhouse under controlled growth conditions. 2 to 3 weeks after sowing, the test plants are treated at the one-leaf stage. The compounds of the invention, formulated in the form of wettable powders (WP) or as emulsion concentrates (EC), are then sprayed onto the green parts of the plants as aqueous suspension or emulsion with addition of 0.5% additive at a water application rate of 600 1/ha (converted). After the test plants have been kept in the greenhouse under optimum growth conditions for about 3 weeks, the activity of the preparations is rated visually in comparison to untreated controls. For example, 100% activity=the plants have died, 0% activity=like control plants. Tables A1 to A15 below show the effects of selected compounds of the general formula (I) according to Tables 1 and 2 on various harmful plants and an application rate corresponding to 320 g/ha and/or 80 g/ha, which were obtained by the experimental procedure mentioned above.

AMARE [10] = assay: as above; type: in vivo, Amaranthus retroflexus; conditions: dosage 320 g/ha, visual rating about 3 weeks after treatment
Method in brief: (§4)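 Weeds and crops sown in sandy loam in greenhouse pots were sprayed post-emergence at the one-leaf stage (2–3 weeks after sowing) with WP or EC formulations plus 0.5% additive at 600 l/ha water, 320 and/or 80 g/ha. About 3 weeks later damage was rated visually against untreated controls (0% = no effect, 100% = dead).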

MATIN [11] = assay: Herbicidal pre-emergence action 2a (greenhouse pots, visual scoring); type: in vivo, Matricaria inodora; conditions: dosage 320 g/ha, visual scoring after about 3 weeks vs untreated controls
Source text: (§5) [table] a) Seeds of monocotyledonous and dicotyledonous weed plants and crop plants are placed in plastic or organic plant pots and covered with soil. The compounds of the invention, formulated in the form of wettable powders (WP) or as emulsion concentrates (EC), are then applied onto the surface of the covering soil as aqueous suspension or emulsion with addition of 0.5% additive at a water application rate of 600 1/ha (converted). After the treatment, the pots are placed in a greenhouse and kept under good growth conditions for the trial plants. After about 3 weeks, the effect of the preparations is scored visually in comparison with untreated controls as percentages. For example, 100% activity=the plants have died, 0% activity=like control plants. Tables B1 to B15 below show the effects of selected compounds of the general formula (I) according to Tables 1 and 2 on various harmful plants and an application rate corresponding to 320 g/ha and/or 80 g/ha, which were obtained by the experimental procedure mentioned above.

AVEFA = assay: Herbicidal post-emergence action 1a (greenhouse pots, visual rating); type: in vivo, Avena fatua; conditions: Dosage 320 g/ha; rated visually about 3 weeks after treatment; 100% = plants have died, 0% = like control plants
Method in brief: as §4

POLCO = assay: as above; type: in vivo, Polygonum convolvulus; conditions: dosage 320 g/ha, visual rating about 3 weeks after treatment
Experimental: as §3

ABUTH = assay: as above; type: in vivo, Abutilon theophrasti; conditions: dosage 320 g/ha, visual rating about 3 weeks after treatment
Experimental: as §3

ECHCG [12] = assay: Herbicidal pre-emergence action 2a (greenhouse pots, visual scoring); type: in vivo, Echinochloa crus-galli; conditions: dosage 320 g/ha, visual scoring after about 3 weeks
Source text: as §5

PHBPU = assay: Herbicidal post-emergence action 1a (greenhouse pots, visual rating); type: in vivo, Pharbitis purpurea; conditions: dosage 320 g/ha, visual rating about 3 weeks after treatment
Experimental: as §3

LOLRI [13] = assay: Herbicidal pre-emergence action 2a (greenhouse pots, visual scoring); type: in vivo, Lolium rigidum; conditions: dosage 320 g/ha, visual scoring after about 3 weeks vs untreated controls
Method in brief: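 Pots of covered seed were sprayed pre-emergence at 320 and/or 80 g/ha. Roughly three weeks of greenhouse growth preceded visual scoring in percent versus untreated controls.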

MATIN [14] = assay: Herbicidal post-emergence action 1a (greenhouse pots, visual rating); type: in vivo, Matricaria inodora; conditions: dosage 320 g/ha, visual rating about 3 weeks after treatment
Experimental: as §3

ALOMY = assay: as above; type: in vivo, Alopecurus myosuroides; conditions: Dosage 320 g/ha; rated visually about 3 weeks after treatment; 100% = plants have died, 0% = like control plants
Method in brief: as §4

LOLRI [15] = assay: as above; type: in vivo, Lolium rigidum; conditions: Dosage 320 g/ha; rated visually about 3 weeks after treatment; 100% = plants have died, 0% = like control plants
Method in brief: as §4

ECHCG [16] = assay: as above; type: in vivo, Echinochloa crus-galli; conditions: Dosage 320 g/ha; rated visually about 3 weeks after treatment; 100% = plants have died, 0% = like control plants
Experimental: as §3

VERPE = assay: as above; type: in vivo, Veronica persica; conditions: visual rating about 3 weeks after treatment
Method in brief: as §4

| Compound | Pre-emergence action at 1280 g/ha against POAAN in % (POAAN [1]) [%] | Pre-emergence action at 1280 g/ha against STEME in % (STEME) [%] | Pre-emergence action at 1280 g/ha against ECHCG in % (ECHCG [2]) [%] | Pre-emergence action at 1280 g/ha against AMARE in % (AMARE [3]) [%] | Post-emergence action at 1280 g/ha against POAAN in % (POAAN [4]) [%] | Post-emergence action at 1280 g/ha against ECHCG in % (ECHCG [5]) [%] | Pre-emergence action at 1280 g/ha against DIGSA in % (DIGSA [6]) [%] | Post-emergence action at 1280 g/ha against MATIN in % (MATIN [7]) [%] | Post-emergence action at 1280 g/ha against DIGSA in % (DIGSA [8]) [%] | Pre-emergence action at 1280 g/ha against MATIN in % (MATIN [9]) [%] | further results |
| --- | --- | --- | --- | --- | --- | --- | --- | --- | --- | --- | --- |
| COC(=O)[C@H](C)Oc1nn(-c2cnccn2)c(-c2ccc(F)nc2)c1C#N [Example I-26] | 100 | 100 | 100 | 90 | 100 | 100 | 100 | 100 |  |  |  |
| CCOC(=O)COc1nn(-c2nccnc2F)c(-c2ccc(F)c(F)c2)c1Br [Example I-74] | 100 | 100 |  | 100 | 90 |  | 100 | 90 | 90 | 100 |  |
| CCOC(=O)COc1nn(-c2nccnc2Cl)c(-c2ccc(F)nc2)c1Br [Example I-71] | 100 | 100 | 100 | 100 | 100 | 100 | 100 | 100 | 90 | 100 |  |
| CCOC(=O)COc1nn(-c2cnccn2)c(-c2cncc(F)c2)c1F [Example I-94] |  |  |  |  |  |  |  |  |  |  | Post-emergence action against SETVI in % (SETVI): 90%; Post-emergence action against AMARE in % (AMARE [10]): 80%; Pre-emergence action against MATIN in % (MATIN [11]): 90%; Post-emergence action against AVEFA in % (AVEFA): 80%; Post-emergence action against POLCO in % (POLCO): 80%; Post-emergence action against ABUTH in % (ABUTH): 90%; Pre-emergence action against ECHCG in % (ECHCG [12]): 100%; Post-emergence action against PHBPU in % (PHBPU): 100%; Pre-emergence action against LOLRI in % (LOLRI [13]): 90%; Post-emergence action against MATIN in % (MATIN [14]): 80%; Post-emergence action against ALOMY in % (ALOMY): 80%; Post-emergence action against LOLRI in % (LOLRI [15]): 90%; Post-emergence action against ECHCG in % (ECHCG [16]): 90%; Post-emergence action against VERPE in % (VERPE; dosage 80 g/ha): 90%; Post-emergence action against VERPE in % (VERPE; dosage 320 g/ha): 90% |
